According to paper PMC7582725, “Suppression of hTAS2R16 Signaling by Umami Substances” (International Journal of Molecular Sciences, 2020):
Positions count from the first letter of the chain named. “And” between values parts separate entries of the source, which are not always exact repeats. Equal entries are not always repeated. Structures can show the parent of a compound that is named as a salt. Where two headings read alike, the source gives them in different places.

Columns and labels:
hTAS2R16 P44T = molecular target: T1, hTAS2R16 P44T (Homo sapiens, UniProt Q9NYV7, P44T); experiment: Cellular Ca2+ response, cell-based assay in HEK293T cells expressing probenecid-insensitive mutant hTAS2R16 P44T; conditions: for Maximal Response of salicin, P44T: Table 3
T1 construct: expressed in transfected cells; host or cells: HEK293T
T1 sequence (Q9NYV7 1-291 P44T): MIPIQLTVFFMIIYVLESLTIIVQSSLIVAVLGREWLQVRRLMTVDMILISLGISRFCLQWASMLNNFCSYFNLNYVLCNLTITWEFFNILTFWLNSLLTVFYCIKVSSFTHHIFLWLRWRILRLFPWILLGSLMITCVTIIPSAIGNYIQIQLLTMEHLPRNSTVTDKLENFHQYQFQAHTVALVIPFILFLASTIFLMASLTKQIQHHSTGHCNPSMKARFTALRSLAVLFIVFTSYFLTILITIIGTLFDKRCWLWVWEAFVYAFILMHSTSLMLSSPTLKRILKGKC
Method: (§1) HEK293T cells were purchased from American Type Culture Collection (ATCC; Manassas, VA, USA) and cultured as described previously. The plasmids hTAS2R16 and G16αgust44 were constructed as described previously. G16αgust44 and hTAS2R16 were cloned into a cytomegalovirus promoter-based vector and expressed constitutively. Point mutants of N96T and P44T on hTAS2R16 clone and DNA sequencings were performed by Macrogen (Geumcheon-gu, Seoul, Korea). The hTAS2R16 or point mutant expression plasmid was co-transfected with G16αgust44 expression plasmid (4:1) into HEK293T cells using Lipofectamine 2000 (Invitrogen, Carlsbad, CA, USA).
(§2) The umami substances-induced changes in the cytosolic Ca^2+ concentration were measured using a FlexStation III microplate reader (Molecular Devices, Sunnyvale, CA, USA). HEK293T cells transfected with hTAS2R16 were seeded onto 96-well black-wall CellBind surface plates (Corning, NY, USA) for 18–24 h before use. […] The cells were incubated in the dark for 30 min at 37 °C, and then for 15 min at 27 °C in assay buffer consisting of Calcium-4 (FLIPR Calcium 4 Assay Kit, Molecular Devices) and probenecid or the umami compounds. Following treatment, the fluorescence intensity (excitation, 486 nm; emission, 525 nm) of the cell was measured. The relative changes in cell Ca^2+ were plotted as ΔF/F0 on the y-axis, where ΔF is the change in Calcium-4 fluorescence intensity at each time point and F0 is the fluorescence intensity before treatment. The relative response induced by 10 mM salicin was assigned a value of 100.

umami taste [1] = conditions: cited from earlier work
hTAS2R16 [2] = molecular target: T2, hTAS2R16 (Homo sapiens, UniProt Q9NYV7); experiment: Ca2+ response of hTAS2R16-expressing HEK293T cells to bitter ligands in absence and presence of umami substances (Figure 1; fura-2 F340/F380 imaging / cell-based assay); conditions: Glu-Glu 6 mM, Gly-Gly 6 mM; for inhibition of Ca2+ response to arbutin: 5 mM arbutin; for inhibition of Ca2+ response to arbutin / inhibition of Ca2+ response to phenyl β-D-glucopyranoside: MSG 80 mM, IMP 20 mM, L-theanine 80 mM
T2 construct: expressed in transfected cells; host or cells: HEK293T
T2 sequence (Q9NYV7 1-291): T1 sequence (Q9NYV7 1-291 P44T) with T44P
Method: We first verified if non-peptide umami substances affect the downstream signaling mechanism, such as changes in intracellular Ca^2+ of the human bitter taste receptor. […] The increase in fluorescence intensity ratio (F340/F380) with 10 mM salicin was expressed as 100. […] In addition to salicin, hTAS2R16 also recognizes bitter sugars such as phenyl β-D-glucopyranoside and arbutin, a glycosylated hydroquinone extracted from the bearberry plant in the genus Arctostaphylos.
(A) Chemical structures of tested compounds. Summarized data (B) and representative traces (C) showing responses of HEK293T cells co-expressing hTAS2R16 and Gα16gust44 to 10 mM salicin in the absence and presence of umami substances in a cell-based assay. (D,E) Representative ratiometric images of fura-2-loaded hTAS2R16-expressing cells in response to the other ligands, 5 mM arbutin (D) or phenyl β-D-glucopyranoside (E), in the presence of umami substances. The data were normalized as percentages to the maximal signal obtained with the ligands. The color scale indicates the F340/F380 ratio. Scale bar: 11.04 μm. Data are presented as means ± standard error of the mean (SEM) of at least three separate experiments. * p < 0.05, ** p < 0.01, and *** p < 0.001 vs. the 0 mM sample group by Student’s t-test.
as §2, with “Following treatment, the fluorescence intensity (excitation, 486 nm; emission, 525 nm) of the cell was measured.” left out
Cells were seeded onto 96-well black-wall imaging plates (BD Falcon Labware) for 18–26 h prior to their use in an experiment. […] The cells were rinsed with the buffer, incubated in probenecid or sample for 30 min, and then treated with solution containing the ligand. The Fura-2AM-induced fluorescence intensity (excitation at 340 and 380 nm) was measured at emission wavelength of 510 nm using a computer-controlled filter changer (Lambda DG4; Sutter, San Rafael, CA, USA), an Andor Luca CCD camera (Andor Technology, Belfast, UK), and an inverted fluorescence microscope (IX-71; Olympus, Tokyo, Japan). Images were obtained at 3-s intervals and analyzed using MetaFluor software (Molecular Devices, Sunnyvale, CA, USA).

hTAS2R16 N96T = molecular target: T3, hTAS2R16 N96T (Homo sapiens, UniProt Q9NYV7, N96T); experiment: Cellular Ca2+ response, cell-based assay in HEK293T cells expressing probenecid-insensitive mutant hTAS2R16 N96T; conditions: Table 3
T3 construct: expressed in transfected cells; host or cells: HEK293T
T3 sequence (Q9NYV7 1-291 N96T): T1 sequence (Q9NYV7 1-291 P44T) with T44P, N96T
Method: as §1, §2

hTAS2R16 [3] = molecular target: T2, hTAS2R16; experiment: Cellular Ca2+ response, cell-based assay (Calcium-4, FlexStation III) in HEK293T cells co-expressing wild-type hTAS2R16 and G16αgust44; conditions: for IC50: means ± SEM; for Maximal Response of salicin: Table 1; for Maximal Response of salicin, WT: Table 3; for mechanism of antagonism at hTAS2R16: from salicin concentration–response curves at graded antagonist concentrations
Method: as §1, §2

umami taste [4] = experiment: Human sensory evaluation of umami taste (literature); assay type: in vivo; conditions: MSG vs Glu-Glu; from cited thresholds
hTAS2R16 [5] = molecular target: T2, hTAS2R16; conditions: in the presence of 3 mM salicin; read-out: reported IC50; cited from earlier work
[6] = molecular target: hTAS2R16 (human bitter taste receptor, type 2 taste receptor 16), wild type (human) (UniProt Q9NYV7)
[7] = molecular target: hTAS2R16 (human bitter taste receptor, type 2 taste receptor 16), wild type (human) (UniProt Q9NYV7); remark: listed apart in the source
hTAS2R16 P44T (human) = hTAS2R16 P44T (human) (UniProt Q9NYV7)
hTAS2R16 N96T (human) = hTAS2R16 N96T (human) (UniProt Q9NYV7)
[8] = pretreatment with sample 0.3 mM

Molecule: N[C@@H](CCC(=O)O)C(=O)O [MSG, L-glutamic acid monosodium salt hydrate]
- Maximal Response of salicin, P44T (hTAS2R16 P44T; pretreatment with sample 80 mM): 0.57 ΔF/F0
- detection threshold (umami taste [1]): 0.7 mM
- umami taste intensity (relative) (umami taste [1]; enhancing umami taste intensity, MSG = 1.0): 1.0
- umami taste threshold (umami taste [1]; human sensory evaluation studies): 30 mg%
- inhibition of Ca2+ response to arbutin (hTAS2R16 [2]): significantly inhibited
- reduction of intracellular Ca2+ influx evoked by salicin (hTAS2R16 [2]; 10 mM salicin, MSG 10 and 80 mM, IMP 10 and 20 mM, L-theanine 10 and 80 mM, probenecid 0.1 and 0.3 mM): concentration-dependent reduction
- inhibition of Ca2+ response to phenyl β-D-glucopyranoside (hTAS2R16 [2]): significantly inhibited
- Maximal Response of salicin, N96T (hTAS2R16 N96T; pretreatment with sample 80 mM): 0.65 ΔF/F0
- synergistic effect with IMP on suppression of salicin response (hTAS2R16 [3]; 10 mM salicin, graded IMP below or at 10 mM): produce similar synergistic effects with IMP
- IC50 (hTAS2R16 [3]; IC50 in the presence of 10 mM salicin, Table 2, + IMP 0 mM): 64.67 ± 0.04 mM
- IC50 (hTAS2R16 [3]; IC50 of umami substances in the presence of 10 mM salicin, Figure 2B, pretreatment with sample, fixed 10 mM salicin): 51 mM and 51.1 mM
- Maximal Response of salicin (hTAS2R16 [3]; pretreatment with sample 10 mM): 0.55 ΔF/F0
- Maximal Response of salicin (hTAS2R16 [3]; pretreatment with sample 30 mM): 0.54 ΔF/F0
- Maximal Response of salicin (hTAS2R16 [3]; pretreatment with sample 80 mM): 0.49 ΔF/F0
- Maximal Response of salicin (hTAS2R16 [3]; pretreatment with sample 100 mM): 0.47 ΔF/F0
- Maximal Response of salicin, WT (hTAS2R16 [3]; pretreatment with sample 80 mM): 0.49 ΔF/F0
- mechanism of antagonism at hTAS2R16 (hTAS2R16 [3]): surmountable antagonist
- increase of the EC50 of salicin (hTAS2R16 [3]; sample at highest concentration, 100 mM): 8.5 fold
- umami taste threshold, times lower than Glu-Glu (umami taste [4]): around 10 times

Molecule: CCCN(CCC)S(=O)(=O)c1ccc(C(=O)O)cc1 [Probenecid, ρ-(dipropylsulfamoyl)benzoic acid]
- Maximal Response of salicin, P44T (hTAS2R16 P44T; [8]): 0.58 ΔF/F0
- attenuation of salicin response by pretreatment, P44T mutant (hTAS2R16 P44T; salicin 0.003–30 mM, probenecid 0.3 mM, MSG 80 mM, L-theanine 80 mM): not in cells expressing the two mutants
- IC50 (hTAS2R16 [5]): 0.29 mM
- inhibition of Ca2+ response to arbutin (hTAS2R16 [2]): inhibited
- inhibition of Ca2+ response to phenyl β-D-glucopyranoside (hTAS2R16 [2]): inhibited
- Maximal Response of salicin, N96T (hTAS2R16 N96T; [8]): 0.68 ΔF/F0
- Maximal Response of salicin (hTAS2R16 [3]; pretreatment with sample 0.1 mM): 0.47 ΔF/F0
- Maximal Response of salicin (hTAS2R16 [3]; [8]): 0.23 ΔF/F0
- Maximal Response of salicin (hTAS2R16 [3]; pretreatment with sample 1 mM): 0.07 ΔF/F0
- Maximal Response of salicin, WT (hTAS2R16 [3]; [8]): 0.23 ΔF/F0
- mechanism of antagonism at hTAS2R16 (hTAS2R16 [3]): full insurmountable antagonism
- attenuation of salicin response by pretreatment, WT receptor (hTAS2R16 [3]; salicin 0.003–30 mM, probenecid 0.3 mM, L-theanine 80 mM): significant attenuation

Molecule: Glu-Glu (peptide)
- maximal Ca2+ response (ΔF/F0) to salicin (0-30 mM) in cells expressing hTAS2R16 with Glu-Glu at 0, 1, 3, 6 and 10 mM (0.54 at 0 mM); value at 10 mM Glu-Glu [6]: 0.33 ΔF/F0
- maximal Ca2+ response (ΔF/F0) to salicin in cells expressing wild-type hTAS2R16 after pretreatment with 6 mM Glu-Glu (0.54 without Glu-Glu) [7]: 0.4 ΔF/F0
- maximal Ca2+ response (ΔF/F0) to salicin in cells expressing hTAS2R16 P44T after pretreatment with 6 mM Glu-Glu (0.62 without Glu-Glu) (hTAS2R16 P44T (human)): 0.42 ΔF/F0
- maximal Ca2+ response (ΔF/F0) to salicin in cells expressing hTAS2R16 N96T after pretreatment with 6 mM Glu-Glu (0.61 without Glu-Glu); the text says the inhibition by Glu-Glu is lost in this mutant (hTAS2R16 N96T (human)): 0.65 ΔF/F0
